From ChEMBL document CHEMBL4308877, “Thiazole, thio and semicarbazone derivatives against tropical infective diseases: Chagas disease, human African trypanosomiasis (HAT), leishmaniasis, and malaria” (Eur J Med Chem, 2019) come the findings set out here.

Data set [1] concerns Trypanosoma cruzi. Put plainly: Anti-parasitic activity against trypomastigote stage of Trypanosoma cruzi Y infected in monkey LLC-MK2 cells after 24 hrs. Type of data set: functional, organism-based. The settings on record: LLC-MK2, 24 h.
Data set [2] can be described thus: Selectivity index, ratio of cytotoxic activity for monkey LLC-MK2 cells to IC50 for trypomastigote stage of Trypanosoma cruzi Y. Type of data set: toxicity.
Data set [3] deals with Trypanosoma cruzi. Put plainly: Anti-parasitic activity against amastigote stage of Trypanosoma cruzi Y infected in monkey LLC-MK2 cells after 96 hrs. Type of data set: functional, organism-based. The following applies: LLC-MK2, 96 h.
In data set [4] the test system is Trypanosoma brucei brucei. Put plainly: Anti-parasitic activity against trypomastigote stage of Trypanosoma brucei brucei. Type of data set: functional, organism-based.
A short description of data set [5]: Selectivity index, ratio of IC50 for human WI38 cells to IC50 for trypomastigote stage of Trypanosoma brucei brucei. The settings on record: read-out: Ratio IC50. The format is toxicity.
Data set [6] relates to Leishmania infantum. Put plainly: Anti-parasitic activity against promastigote stage of Leishmania infantum MHOM/BR/BH 46 after 72 hrs by Neubauer chamber method. The format is functional, organism-based. The settings on record: MHOM/BR/BH 46, 72 h.
Data set [7] is described as follows: Selectivity index, ratio of cytotoxic activity for macrophages (unknown origin) to IC50 for amastigote stage of Leishmania infantum MHOM/BR/BH 46. Type of data set: toxicity. The settings on record: read-out: Ratio CC50/IC50.
The nature of data set [8]: Selectivity index, ratio of CC50 for mouse J774 cells to IC50 for promastigote stage of Leishmania infantum MHOM/BR/BH 46. Type of data set: toxicity. The settings on record: read-out: Ratio CC50/IC50.
Data set [9] deals with Leishmania infantum. Put plainly: Anti-parasitic activity against amastigote stage of Leishmania infantum MHOM/BR/BH 46 infected in macrophages after 24 hrs by Giemsa staining based method. Type of data set: functional, organism-based. The following applies: MHOM/BR/BH 46, 24 h.
A short description of data set [10]: Selectivity index, ratio of LC50 for salina eggs to IC50 for Trypanosoma brucei brucei 427. Type of data set: toxicity. The settings on record: Artemia salina (brine shrimp), read-out: Ratio IC50.
In data set [11] the test system is Trypanosoma brucei brucei. Put plainly: Anti-parasitic activity against Trypanosoma brucei brucei 427 after 72 hrs by Alamar Blue assay. Type of data set: functional, organism-based. The settings on record: Trypanosoma brucei, 427, 72 h. For orientation: Resazurin is reduced to fluorescent resorufin, in cell work by metabolically active cells.
The nature of data set [12]: Selectivity index, ratio of CC50 for mouse J774A1 cells to IC50 for amastigote stage of Leishmania amazonensis infected in BALB/c mouse Peritoneal macrophages. The format is toxicity. The settings on record: read-out: Ratio CC50/IC50.
In data set [13] the test system is Leishmania amazonensis. Put plainly: Anti-parasitic activity against axenic amastigote stage of Leishmania amazonensis MHOM/BR/Josefa […] after 72 hrs by Neubauer chamber method. The format is functional, organism-based.
Data set [14] in a line: Selectivity index, ratio of CC50 for mouse J774A1 cells to IC50 for axenic amastigote stage of Leishmania amazonensis MHOM/BR/Josefa. The format is toxicity. The settings on record: read-out: Ratio CC50/IC50.
Data set [15] relates to Leishmania amazonensis. Put plainly: Anti-parasitic activity against amastigote stage of Leishmania amazonensis MHOM/BR/Josefa infected in BALB/c mouse Peritoneal macrophages after 48 hrs by Giemsa staining-based method. The format is functional, organism-based.
The test system of data set [16] is Leishmania amazonensis. Put plainly: Anti-parasitic activity against promastigote stage of Leishmania amazonensis MHOM/BR/Josefa […] after 72 hrs by Neubauer chamber method. Type of data set: functional, organism-based.
Data set [17] can be described thus: Selectivity index, ratio of CC50 for mouse J774A1 cells to IC50 for promastigote stage of Leishmania amazonensis MHOM/BR/Josefa. The settings on record: read-out: Ratio CC50/IC50. Type of data set: toxicity.
Data set [18] is described as follows: Selectivity index, ratio of IC50 for HEK293T cells to IC50 for Trypanosoma brucei gambiense MBA. Type of data set: toxicity. The following applies: human.
Data set [19] deals with Trypanosoma brucei rhodesiense. Put plainly: Anti-parasitic activity against Trypanosoma brucei rhodesiense STIB 851. Type of data set: functional, organism-based.
A short description of data set [20]: Selectivity index, ratio of IC50 for HEK293T cells to IC50 for Trypanosoma brucei brucei AnTat1.1E. The format is toxicity. The settings on record: human.
Data set [21] relates to Trypanosoma brucei brucei. Put plainly: Anti-parasitic activity against Trypanosoma brucei brucei AnTat1.1E. The format is functional, organism-based.
Data set [22] can be described thus: Selectivity index, ratio of IC50 for HEK293T cells to IC50 for Trypanosoma brucei rhodesiense STIB 851. The settings on record: human. Type of data set: toxicity.
In data set [23] the test system is Trypanosoma brucei gambiense. Put plainly: Anti-parasitic activity against Trypanosoma brucei gambiense MBA. The format is functional, organism-based.
Data set [24] has as its system Leishmania panamensis. Put plainly: Anti-parasitic activity against amastigote stage of EGFP-fused Leishmania panamensis MHOM/CO/87/UA140 infected in human U-937 cells after 72 hrs by flow cytometric analysis. Type of data set: functional, organism-based. The following applies: MHOM/CO/87/UA140, U-937, 72 h. A general note: In flow cytometry, cells or beads pass a laser one at a time.

Data set [25] can be described thus: Selectivity index, ratio of EC50 for human U-937 cells to IC50 for amastigote stage of EGFP-fused Leishmania panamensis MHOM/CO/87/UA140. The settings on record: read-out: Selectivity Index. Type of data set: toxicity.
A short description of data set [26]: Selectivity index, ratio of IC50 for human THP1 cells to IC50 for Trypanosoma brucei overexpressing the type 1 nitroreductase. The following applies: read-out: Ratio IC50. Type of data set: toxicity.
For data set [27], the system named is Trypanosoma brucei. Put plainly: Anti-parasitic activity against wild type Trypanosoma brucei. The format is functional, organism-based.
Data set [28] can be described thus: Selectivity index, ratio of IC50 for human SK-N-SH cells to IC50 for wild type Trypanosoma brucei. The format is toxicity. The settings on record: read-out: Ratio IC50.
The subject of data set [29] is Trypanosoma brucei. Put plainly: Anti-parasitic activity against type 1 nitroreductase over-expressing Trypanosoma brucei. The format is functional, organism-based.
For data set [30], the system named is Trypanosoma cruzi. Put plainly: Anti-parasitic activity against amastigote stage of Trypanosoma cruzi Sylvio X-10 infected in African green monkey Vero cells after 72 hrs by Giemsa-staining based assay. Type of data set: functional, organism-based. The settings on record: Sylvio X-10, Vero.
Data set [31] deals with Trypanosoma cruzi. Put plainly: Anti-parasitic activity against epimastigote stage of Trypanosoma cruzi Tulahuen 2 measured at day 5. The format is functional, organism-based. The following applies: Tulahuen 2, 120 h.
Data set [32] has as its system NCI-H460. Put plainly: Cytotoxicity against human H460 cells assessed as reduction in cell viability after 72 hrs by MTT assay. The format is functional, cell-based. The settings on record: NCI-H460, 72 h. A general note: Tetrazolium assays rely on reduction of a dye to a coloured formazan, in cell work by metabolically active cells.
Data set [33] concerns the target Vascular endothelial growth factor receptor 2 (Homo sapiens) (UniProt P35968). Put plainly: Inhibition of recombinant GST-tagged human KDR (789 to end residues) expressed in baculovirus infected Sf9 cells at 10 uM using peptide as substrate preincubated for 1 hr followed by substrate addition measured after 20 mins by HTRF assay relative to control.
For data set [34], the system named is WI-38. Put plainly: Cytotoxicity against human WI38 cells assessed as reduction in cell viability after 72 hrs by MTT assay. The format is cell-based. The following applies: WI-38, 72 h.
Data set [35] deals with Platelet-derived growth factor receptor alpha (Homo sapiens) (UniProt P16234). Put plainly: Inhibition of recombinant GST-tagged human PDGFRalpha (550 to 1089 residues) cytoplasmic domain expressed in baculovirus expression system at 10 uM using peptide as substrate preincubated for 1 hr followed by substrate addition measured after 20 mins by HTRF assay relative to control.
Platelet-derived growth factor receptor alpha (Homo sapiens), sequence (P16234 whole entry, the tested form may be a part): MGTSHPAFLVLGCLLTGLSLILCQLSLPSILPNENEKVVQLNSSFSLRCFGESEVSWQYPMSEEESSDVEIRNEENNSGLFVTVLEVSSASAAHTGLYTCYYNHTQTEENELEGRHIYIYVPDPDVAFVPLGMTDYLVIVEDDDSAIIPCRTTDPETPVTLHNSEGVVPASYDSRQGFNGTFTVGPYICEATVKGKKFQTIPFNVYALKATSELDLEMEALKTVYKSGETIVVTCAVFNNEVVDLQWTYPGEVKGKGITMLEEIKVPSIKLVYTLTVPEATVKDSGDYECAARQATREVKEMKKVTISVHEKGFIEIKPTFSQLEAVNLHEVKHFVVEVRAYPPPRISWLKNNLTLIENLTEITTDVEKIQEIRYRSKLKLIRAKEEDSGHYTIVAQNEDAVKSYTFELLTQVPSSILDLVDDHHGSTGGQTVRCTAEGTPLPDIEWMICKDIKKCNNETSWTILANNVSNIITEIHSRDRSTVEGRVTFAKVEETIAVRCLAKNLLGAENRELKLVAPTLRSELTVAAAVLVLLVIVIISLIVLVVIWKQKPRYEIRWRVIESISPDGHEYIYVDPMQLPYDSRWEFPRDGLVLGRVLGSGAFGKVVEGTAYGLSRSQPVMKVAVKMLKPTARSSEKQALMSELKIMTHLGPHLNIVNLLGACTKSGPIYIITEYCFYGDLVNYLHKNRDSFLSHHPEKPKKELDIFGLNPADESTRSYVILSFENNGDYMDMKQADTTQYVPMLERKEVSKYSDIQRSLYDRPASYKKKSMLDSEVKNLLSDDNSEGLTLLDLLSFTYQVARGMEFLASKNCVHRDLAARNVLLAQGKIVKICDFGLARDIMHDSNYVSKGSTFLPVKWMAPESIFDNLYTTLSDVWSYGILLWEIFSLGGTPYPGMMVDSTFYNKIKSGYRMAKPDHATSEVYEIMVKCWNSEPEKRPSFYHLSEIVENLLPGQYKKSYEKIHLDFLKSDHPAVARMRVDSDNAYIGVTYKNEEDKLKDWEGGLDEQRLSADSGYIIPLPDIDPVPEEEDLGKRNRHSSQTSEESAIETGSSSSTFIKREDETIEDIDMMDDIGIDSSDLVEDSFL

Data set [36] deals with HT-29. Put plainly: Cytotoxicity against human HT-29 cells assessed as reduction in cell viability after 72 hrs by MTT assay. The settings on record: HT-29, 72 h. The format is functional, cell-based.
The target in data set [37] is Hepatocyte growth factor receptor (Homo sapiens) (UniProt P08581). Put plainly: Inhibition of recombinant N-terminal His6-tagged human c-MET (974 to end residues) expressed in baculovirus infected Sf21 cells at 10 uM using peptide as substrate preincubated for 1 hr followed by substrate addition measured after 20 mins by HTRF assay relative to control.
Hepatocyte growth factor receptor (Homo sapiens), sequence (P08581 whole entry): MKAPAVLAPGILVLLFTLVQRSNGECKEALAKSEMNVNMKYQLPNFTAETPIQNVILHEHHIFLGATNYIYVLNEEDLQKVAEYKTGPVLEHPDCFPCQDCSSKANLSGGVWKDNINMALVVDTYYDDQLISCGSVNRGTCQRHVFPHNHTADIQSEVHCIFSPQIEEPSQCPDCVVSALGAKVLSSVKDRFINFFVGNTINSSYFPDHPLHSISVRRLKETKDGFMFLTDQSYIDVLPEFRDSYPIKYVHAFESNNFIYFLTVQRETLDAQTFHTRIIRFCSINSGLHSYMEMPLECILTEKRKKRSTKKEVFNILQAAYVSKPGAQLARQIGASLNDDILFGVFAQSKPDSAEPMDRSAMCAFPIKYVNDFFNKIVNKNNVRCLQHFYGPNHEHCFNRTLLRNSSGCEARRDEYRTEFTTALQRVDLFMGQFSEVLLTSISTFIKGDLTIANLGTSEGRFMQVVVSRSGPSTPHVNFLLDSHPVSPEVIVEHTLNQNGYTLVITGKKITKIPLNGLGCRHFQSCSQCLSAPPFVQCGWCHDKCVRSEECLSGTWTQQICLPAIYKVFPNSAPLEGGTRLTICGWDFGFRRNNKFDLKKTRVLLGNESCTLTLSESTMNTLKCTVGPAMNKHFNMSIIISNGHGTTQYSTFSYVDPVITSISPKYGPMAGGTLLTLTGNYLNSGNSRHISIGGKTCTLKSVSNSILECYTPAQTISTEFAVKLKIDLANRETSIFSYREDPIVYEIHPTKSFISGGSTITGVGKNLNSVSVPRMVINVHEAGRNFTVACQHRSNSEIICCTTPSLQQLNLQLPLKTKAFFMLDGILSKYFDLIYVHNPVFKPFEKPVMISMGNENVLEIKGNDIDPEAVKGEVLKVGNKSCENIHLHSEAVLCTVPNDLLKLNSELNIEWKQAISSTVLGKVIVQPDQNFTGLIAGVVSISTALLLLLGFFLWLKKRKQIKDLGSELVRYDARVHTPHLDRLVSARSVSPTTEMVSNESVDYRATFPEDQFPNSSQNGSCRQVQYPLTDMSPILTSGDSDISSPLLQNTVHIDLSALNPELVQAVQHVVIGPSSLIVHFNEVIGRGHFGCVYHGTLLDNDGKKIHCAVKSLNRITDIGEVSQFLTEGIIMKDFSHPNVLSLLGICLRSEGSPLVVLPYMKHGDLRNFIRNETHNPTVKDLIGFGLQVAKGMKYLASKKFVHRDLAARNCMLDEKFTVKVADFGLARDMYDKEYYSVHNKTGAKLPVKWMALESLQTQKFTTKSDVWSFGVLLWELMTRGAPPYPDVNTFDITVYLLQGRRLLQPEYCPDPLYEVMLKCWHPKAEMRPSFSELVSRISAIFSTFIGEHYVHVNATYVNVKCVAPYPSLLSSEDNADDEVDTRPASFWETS
Data set [38] deals with RAF proto-oncogene serine/threonine-protein kinase (Homo sapiens) (UniProt P04049). Put plainly: Inhibition of c-Raf (unknown origin) at 10 uM using peptide as substrate preincubated for 1 hr followed by substrate addition measured after 20 mins by HTRF assay relative to control.
RAF proto-oncogene serine/threonine-protein kinase (Homo sapiens), sequence (P04049 whole entry): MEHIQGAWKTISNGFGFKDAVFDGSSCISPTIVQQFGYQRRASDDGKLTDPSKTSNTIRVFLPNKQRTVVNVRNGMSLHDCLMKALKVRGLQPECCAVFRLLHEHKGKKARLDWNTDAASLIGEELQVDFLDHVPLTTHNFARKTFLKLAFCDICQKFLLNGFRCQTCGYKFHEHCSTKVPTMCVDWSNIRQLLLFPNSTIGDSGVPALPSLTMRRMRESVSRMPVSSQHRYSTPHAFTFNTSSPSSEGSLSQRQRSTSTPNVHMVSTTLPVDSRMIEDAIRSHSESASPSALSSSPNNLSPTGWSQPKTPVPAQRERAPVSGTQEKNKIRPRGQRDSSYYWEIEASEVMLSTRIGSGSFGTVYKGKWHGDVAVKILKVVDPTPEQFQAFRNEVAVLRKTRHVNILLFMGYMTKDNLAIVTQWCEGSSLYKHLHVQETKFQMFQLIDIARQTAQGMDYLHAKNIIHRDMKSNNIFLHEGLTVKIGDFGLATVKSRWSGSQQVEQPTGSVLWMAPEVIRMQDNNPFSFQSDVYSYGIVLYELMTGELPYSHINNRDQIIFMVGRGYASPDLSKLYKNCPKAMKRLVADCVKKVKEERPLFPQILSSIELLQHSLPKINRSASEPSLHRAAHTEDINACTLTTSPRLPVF
In data set [39] the test system is MKN-45. Put plainly: Cytotoxicity against human MKN45 cells assessed as reduction in cell viability after 72 hrs by MTT assay. The format is functional, cell-based. The settings on record: MKN-45, 72 h.

Structures are written as SMILES.

Vascular endothelial growth factor receptor 2 (Homo sapiens), sequence (P35968 whole entry): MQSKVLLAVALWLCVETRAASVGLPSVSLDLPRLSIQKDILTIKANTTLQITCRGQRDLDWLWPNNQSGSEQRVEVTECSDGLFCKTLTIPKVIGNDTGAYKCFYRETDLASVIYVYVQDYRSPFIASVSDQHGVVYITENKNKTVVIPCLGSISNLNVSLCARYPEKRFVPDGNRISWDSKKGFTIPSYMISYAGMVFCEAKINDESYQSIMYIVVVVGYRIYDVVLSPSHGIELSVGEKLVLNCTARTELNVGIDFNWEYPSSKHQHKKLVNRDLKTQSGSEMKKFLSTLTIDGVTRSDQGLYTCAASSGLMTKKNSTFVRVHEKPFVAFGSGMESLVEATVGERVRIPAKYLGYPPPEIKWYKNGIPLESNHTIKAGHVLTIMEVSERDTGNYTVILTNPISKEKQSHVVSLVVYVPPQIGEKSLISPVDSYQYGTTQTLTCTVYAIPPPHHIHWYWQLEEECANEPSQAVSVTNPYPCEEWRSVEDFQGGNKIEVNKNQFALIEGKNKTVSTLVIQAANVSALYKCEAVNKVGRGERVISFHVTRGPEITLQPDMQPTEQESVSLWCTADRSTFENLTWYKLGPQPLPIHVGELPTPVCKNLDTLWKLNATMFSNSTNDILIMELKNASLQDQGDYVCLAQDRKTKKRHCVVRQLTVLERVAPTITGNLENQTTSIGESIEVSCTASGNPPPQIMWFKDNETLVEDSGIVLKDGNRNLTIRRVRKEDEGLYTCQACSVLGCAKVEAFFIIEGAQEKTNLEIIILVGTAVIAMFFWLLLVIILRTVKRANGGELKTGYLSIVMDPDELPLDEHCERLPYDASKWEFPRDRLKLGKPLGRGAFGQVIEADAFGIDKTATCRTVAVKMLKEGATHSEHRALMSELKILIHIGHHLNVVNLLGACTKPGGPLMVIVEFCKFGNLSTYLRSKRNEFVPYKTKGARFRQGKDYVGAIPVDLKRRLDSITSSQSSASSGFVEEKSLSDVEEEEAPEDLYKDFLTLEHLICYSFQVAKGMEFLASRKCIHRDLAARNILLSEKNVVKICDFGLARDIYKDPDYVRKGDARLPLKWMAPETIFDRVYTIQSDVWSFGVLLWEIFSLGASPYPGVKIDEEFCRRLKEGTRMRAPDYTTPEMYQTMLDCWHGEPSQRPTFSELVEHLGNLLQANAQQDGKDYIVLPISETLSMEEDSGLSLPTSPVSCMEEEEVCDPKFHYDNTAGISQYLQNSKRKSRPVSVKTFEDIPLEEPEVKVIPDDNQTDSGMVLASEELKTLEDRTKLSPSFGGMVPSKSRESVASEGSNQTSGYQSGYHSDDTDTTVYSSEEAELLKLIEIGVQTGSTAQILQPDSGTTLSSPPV

For orientation: IC50 means the point on the concentration scale where inhibition reaches its midpoint. In the case of `CCC1S/C(=N/N=C(/COc2ccccc2)c2ccc(-c3ccccc3)cc2)NC1=O` (stereo unspecified), half-maximal inhibition in data set [1] (IC50) was put at 10.8 µM. Also, the selectivity ratio in [2] is over 21.6.
One may read the EC50 as the concentration that produces a half-maximal response. `N/C(S)=N/N=C/c1ccc([N+](=O)[O-])cc1`: the IC50 in [3] stood at 3.23 µM. This molecule yielded an EC50 in data set [1] of 1.43 µM.
In data set [4], `CC1=C/C(=N/NC(=S)Nc2ccccc2)C(C(C)C)CC1` (stereo unspecified) displayed an IC50 of 10.9 µM. Moreover, the selectivity ratio in data set [5] stood at 12.3.
Consider `O=C1c2ccccc2C(=O)N1Nc1nc(-c2ccc(Cl)cc2Cl)cs1`, for which the figures for the IC50 in [6] and in data set [9] were 13.9 µM and 22.3 µM, respectively. Also, the selectivity ratio amounted to 12 in data set [7] and 12.7 in [8].
Regarding `Nc1ccccc1/C(=N\NC(=S)Nc1ccccc1)c1ccccc1`, the selectivity ratio in data set [10] stood at 15. The molecule also showed an IC50 in data set [11] of 2.83 µM.
With `CC1=CC[C@@H](C(C)(C)NC(=S)N/N=C/c2ccc([N+](=O)[O-])cc2)CC1`, the selectivity ratio in data set [12] amounted to 11.5; in [14], 11.1; in data set [17], 23.4. Moreover, the IC50 in data set [13] amounted to 8 µM; in [15] it was 7.7 µM; in [16], 3.8 µM.
Consider `S=C(NN=C(c1ccccc1)c1ccccc1)Nc1ccccc1`, for which, in data set [10], the selectivity ratio was determined as 43.2. This molecule showed an IC50 in data set [11] of 8.48 µM.
On to `O=c1c2ccccc2sn1-c1ccccc1`, for which the selectivity ratio amounted to 262 in data set [18], 174 in data set [20] and 60.8 in data set [22]. The IC50 in [19] came out at 0.263 µM; in data set [21], 0.092 µM; in data set [23], 0.061 µM.
In the case of `NC(=O)N/N=C1\CC(c2ccccc2)Sc2ccccc21` (stereo unspecified), it took 5.4 µM to reach a half-maximal effect in data set [24] (EC50). Further, the selectivity ratio in data set [25] was determined as 18.6.
Turning to `CC(=O)Nc1ncc([N+](=O)[O-])s1` [NITHIAMIDE], the selectivity ratio in data set [26] is 149; in data set [28], over 21. The IC50 in [27] worked out at 4.67 µM; in data set [29] it was 0.58 µM.
Regarding `C=CCn1c(C(=O)N2CCN(C/C=C/c3ccccc3)CC2)cs\c1=N/N=C/C=C/c1ccco1`, in data set [30], the EC50 was 0.7 µM. Further, inhibition in data set [31] was half-maximal at 3.1 µM (IC50).
The inhibition is the share of the control response that was lost under treatment. As to `O=C(N/N=C/c1c(Cl)cccc1Cl)Nc1ccc(Oc2ccnc(-n3cnnn3)c2)c(F)c1`, the IC50 in data set [32] came to 0.36 µM; in data set [34], 3.96 µM; in [36] it was 0.08 µM; in [39], 0.97 µM. For the same molecule, the inhibition is 14% in data set [33], 14% in data set [35], 14% in data set [37] and 70.7% in [38].
Take `O=C1c2ccccc2C(=O)N1Nc1nc(-c2ccc3ccccc3c2)cs1`: the IC50 is 9.8 µM in data set [6] and 5.2 µM in [9]. Also, the selectivity ratio in [7] is 24; in data set [8], 17.7.
